# Patent US9216977B2 (The University of North Carolina at Chapel Hill, priority 2009, dated 2015)
# Where two headings read alike, the source gives them in different places.
# Tests used:
# A549 = experiment: in vitro screen against human tumor cell line A549 (lung), GI50; assay type: cell-based
# DU145 = experiment: in vitro screen against human tumor cell line DU-145 (prostate), GI50; assay type: cell-based
# KB = experiment: in vitro screen against human tumor cell line KB (nasopharyngeal), GI50; assay type: cell-based; settings: read-out: GI50 KB
# HCT-8 = experiment: in vitro screen against human tumor cell line HCT-8 (colon), GI50; assay type: cell-based
# KBvin = experiment: in vitro screen against KBvin cell line, GI50; assay type: cell-based
# [1] = test system: panel of cancer cell lines including A549 (lung), DU-145 (prostate), KB (nasopharyngeal), and HCT-8 (colon)
# [2] = Homo sapiens, A549, read-out: GI50 A549
# [3] = Homo sapiens, DU-145, read-out: GI50 DU145
# [4] = Homo sapiens, HCT-8, read-out: GI50 HCT-8
# [5] = Homo sapiens, A549, Example 2, Table 2, 12-aza-antofines, read-out: GI50 A549
# [6] = Homo sapiens, DU-145, Example 2, Table 2, 12-aza-antofines, read-out: GI50 DU145
# [7] = Homo sapiens, KB, Example 2, Table 2, 12-aza-antofines
# [8] = Homo sapiens, A549, Example 3, Table 1, read-out: GI50 A549
# [9] = Homo sapiens, DU-145, Example 3, Table 1, read-out: GI50 DU145
# [10] = Homo sapiens, KB, Example 3, Table 1
# [11] = Homo sapiens, KBVIN, Example 3, Table 1
# [12] = Homo sapiens, A549, Example 2, Table 4, 12-aza-cryptopleurines, read-out: GI50 A549
# [13] = Homo sapiens, DU-145, Example 2, Table 4, 12-aza-cryptopleurines, read-out: GI50 DU145
# [14] = Homo sapiens, KB, Example 2, Table 4, 12-aza-cryptopleurines
# [15] = Homo sapiens, HCT-8, Example 2, Table 4, 12-aza-cryptopleurines, read-out: GI50 HCT-8
# [16] = Homo sapiens, A549, Example 2, Table 3, 13-aza-cryptopleurines, read-out: GI50 A549
# [17] = Homo sapiens, DU-145, Example 2, Table 3, 13-aza-cryptopleurines, read-out: GI50 DU145
# [18] = Homo sapiens, KB, Example 2, Table 3, 13-aza-cryptopleurines
# [19] = Homo sapiens, HCT-8, Example 2, Table 3, 13-aza-cryptopleurines, read-out: GI50 HCT-8
compound,measurement,setting,value
"COc1ccc2c3c(c4cc(OC)c(OC)cc4c2c1)C[C@H]1CN(CCc2ccccc2)CN1C3 [Compound 3d, (S)-12-aza-12N-phenylethylenyl-antofine]",GI50,A549; [2],6.62 µM
same,GI50,DU145; [3],10.2 µM
same,GI50,"KB; Homo sapiens, KB",10 µM
same,GI50,HCT-8; [4],7.47 µM
same,melting point,,85 to 87 °C
"COc1ccc2c3c(c4cc(OC)c(OC)cc4c2c1)CC1CN(Cc2ccccc2)CN1C3 (stereo in doubt) [Compound 3j, (R)-12-aza-12N-benzyl-antofine]",GI50,A549; [5],2.68 µM
same,GI50,DU145; [6],4.62 µM
same,GI50,KB; [7],3.41 µM
same,GI50,"KBvin; Homo sapiens, Table 2, cells marked (KBvin) in the HCT-8 column",1.87 µM
same,melting point,,95 to 97 °C
"COc1ccc2c3c(c4cc(OC)c(OC)cc4c2c1)C[C@H]1CC(=O)CN1C3 [Compound 8, (S)-12-oxo-antofine]",GI50,A549; [8],0.29 µM
same,GI50,DU145; [9],0.71 µM
same,GI50,KB; [10],0.5 µM
same,GI50,KBvin; [11],0.43 µM
same,range of cytotoxicity / anticancer activity in words,[1],middle nM to low μM range
"COc1ccc2c3c(c4cc(OC)c(OC)cc4c2c1)C[C@H]1CN(C2CC2)CN1C3 [Compound 3g, (S)-12-aza-12N-cyclopropyl-antofine]",GI50,A549; [5],1.8 µM
same,GI50,DU145; [6],3.7 µM
same,GI50,KB; [7],2.71 µM
same,GI50,"HCT-8; Homo sapiens, HCT-8, Example 2, Table 2, 12-aza-antofines, read-out: GI50 HCT-8",1.85 µM
same,melting point,,204 to 206 °C
"COc1ccc2c3c(c4cc(OC)c(OC)cc4c2c1)C[C@H]1CCN(Cc2ccccc2)CN1C3 [Compound 11d, (S)-12-aza-12N-benzyl-cryptopleurine]",GI50,A549; [12],29.9 µM
same,GI50,DU145; [13],> 40 µM
same,GI50,KB; [14],> 40 µM
same,GI50,HCT-8; [15],21.3 µM
same,melting point,,211 to 213 °C
"COc1ccc2c3c(c4cc(OC)c(OC)cc4c2c1)C[C@H]1C[C@@H](O)[C@H](O)CN1C3 [Compound 24b, (12R,13R,14aS)-12,13-dihydroxyl-cryptopleurine]",GI50,A549; [8],14.5 µM
same,GI50,DU145; [9],17.1 µM
same,GI50,KB; [10],17.5 µM
same,GI50,KBvin; [11],12.6 µM
"COC1=C[C@@H]2Cc3c(c4ccc(OC)cc4c4cc(OC)c(OC)cc34)CN2C1 [Compound 7, (S)-12-methoxy-antofine-12-ene]",GI50,A549; read-out: GI50 A549,5.97 µM
same,GI50,DU145; read-out: GI50 DU145,10.3 µM
same,GI50,KB,12.00 µM
same,GI50,HCT-8; read-out: GI50 HCT-8,3.56 µM
same,GI50,KBvin,2.64 µM
"COc1ccc2c3c(c4cc(OC)c(OC)cc4c2c1)C[C@H]1CN(CCO)CCN1C3 [Compound 8j, (S)-13-aza-13N-hydroxylethyl-cryptopleurine]",GI50,A549; [16],14.1 µM
same,GI50,DU145; [17],12.6 µM
same,GI50,KB; [18],8.62 µM
same,GI50,HCT-8; [19],7.41 µM
same,melting point,,266 °C (dec.)
"COc1ccc2c3c(c4cc(OC)c(OC)cc4c2c1)CC1CCN(CC(C)C)CN1C3 (stereo in doubt) [Compound 11g, (R)-12-aza-12N-isobutyl-cryptopleurine]",GI50,"A549; Example 2, Table 4, 12-aza-cryptopleurines, read-out: GI50 A549",5.11 µM
same,GI50,"DU145; Example 2, Table 4, 12-aza-cryptopleurines, read-out: GI50 DU145",1.66 µM
same,GI50,"KB; Example 2, Table 4, 12-aza-cryptopleurines",1.45 µM
same,GI50,"KBvin; Homo sapiens, Table 4, cell marked (KBvin) in the HCT-8 column",7.32 µM
same,melting point,,175 to 177 °C
"COc1ccc2c3c(c4cc(OC)c(OC)cc4c2c1)C[C@H]1C[C@@H](O)CN1C3 [Compound 9a, (12R,13aS)-12-hydroxyl-antofine]",GI50,A549; [8],0.61 µM
same,GI50,DU145; [9],0.7 µM
same,GI50,KB; [10],0.78 µM
same,GI50,KBvin; [11],0.64 µM
same,range of cytotoxicity / anticancer activity in words,[1],middle nM to low μM range
same,activity of 12R isomer compared with 12S isomer (9b),[1]; Example 3,3 fold
"COC(=O)N1CCN2Cc3c(c4cc(OC)c(OC)cc4c4cc(OC)ccc34)C[C@H]2C1 [Compound 8c, (S)-13-aza-13N-methoxycarbonyl-cryptopleurine]",GI50,A549; [16],10.9 µM
same,GI50,DU145; [17],12.2 µM
same,GI50,KB; [18],11.3 µM
same,GI50,HCT-8; [19],12.1 µM
same,melting point,,99 to 101 °C
"COc1ccc2c3c(c4cc(OC)c(OC)cc4c2c1)C[C@H]1CN(CC2CC2)CCN1C3 [Compound 8g, (S)-13-aza-13N-cyclopropylmethyl-cryptopleurine]",GI50,A549; [16],0.79 µM
same,GI50,DU145; [17],2.94 µM
same,GI50,KB; [18],6.57 µM
same,GI50,HCT-8; [19],0.25 µM
same,melting point,,160 to 162 °C
"COc1ccc2c3c(c4cc(OC)c(OC)cc4c2c1)C[C@H]1CN(C(C)=O)CCN1C3 [Compound 8d, (S)-13-aza-13N-acetyl-cryptopleurine]",GI50,A549; [2],11.7 µM
same,GI50,DU145; [3],11.9 µM
same,GI50,"KB; Homo sapiens, KB",15.5 µM
same,GI50,HCT-8; [4],13.8 µM
same,melting point,,123 to 125 °C
"COc1ccc2c3c(c4cc(OC)c(OC)cc4c2c1)C[C@H]1CCN(CCO)CN1C3 [Compound 11a, (S)-12-aza-12N-hydroxylethyl-cryptopleurine]",GI50,A549; [12],5.68 µM
same,GI50,DU145; [13],1.99 µM
same,GI50,KB; [14],1.59 µM
same,GI50,HCT-8; [15],10.7 µM
same,melting point,,138 to 140 °C
